Source: patent US9079881B2, “Polymorph of 1-(2-methyl-4-(2,3,4,5-tetrahydro-1-benzazepin-1-ylcarbonyl)benzylcarbamoyl)-L-proline-N,N-dimethylamide” (Vantia Limited, priority 2010, dated 2015)
“Also recorded” adds a separate entry of the source. Like-named read-outs stand apart in the source and are kept apart here.

Tests used:
vasopressin V2 receptor = target: T1, vasopressin V2 receptor (Rattus norvegicus, UniProt Q00788); test: in vivo assay described in PCT/GB2001/000023 (inhibition of urine output); conditions: at 1 hour, dosed at 1 mg/Kg
T1 construct: from tissue; host or cells: whole animal (in vivo)
From the text: The ability of the crystalline form of the invention to agonise the vasopressin V2 receptor may be determined using the in vivo assay described in PCT/GB2001/000023.

[1] = Stability testing: storage for 6 months at 40° C. and 75% relative humidity (Karl Fischer, HPLC, appearance); type: physicochemical; conditions: for sum of impurities (HPLC), initial / water / moisture content (Karl Fischer), initial: before storage
Method: Karl Fischer moisture content determination was carried out using Metrohm 795 KFT volumetric Karl Fischer apparatus. Sample size was approximately 100 mg and the determination was carried out in duplicate.
HPLC data were collected using a Zorbax Extend C18, 2.1 mm×150 mm, 5 μm d.p. column. Flow rate was 0.3 mL/min. Injection volume was 10 μL, detector wavelength 220 nm and column temperature 40° C. Eluent A was 10 mM aqueous ammonium acetate, pH 5.0. Eluent B was 20:80 v/v 10 mM aqueous ammonium acetate: acetonitrile. The gradient programme is shown below: […]
Also, there is no significant degradation as measured by the sum of impurities which increases only from 0.9% to 1.0% (HPLC).

[2] = Gravimetric Vapour Sorption Analysis (GVA), hygroscopicity testing; type: physicochemical
Method: Gravimetric Vapour Sorption Analysis (GVA) was carried out with approximately 20 mg of sample placed into a suitable sample holder such as a wire-mesh vapour sorption balance pan. This was loaded into either an IGAsorp (Hiden Analytical Instruments) or a DVS Intrinsic (Surface Measurement Systems) vapour sorption balance held at 25+/−0.1° C. The sample was then dried by maintaining a 0% humidity environment until no further weight change was recorded (alternatively, the sorption/desorption cycle is initiated at typical ambient conditions of 40% relative humidity). Subsequently, the sample was then subjected to a ramping profile up to 90% relative humidity at 10% relative humidity increments, maintaining the sample at each step until equilibration had been attained (99.5% step completion). Upon reaching equilibration, the relative humidity within the apparatus was ramped to the next step and the equilibration procedure repeated. After completion of the sorption cycle, the sample was then dried using the same procedure. The weight change during the sorption/desorption cycles was then monitored, allowing for the hygroscopic nature of the sample to be determined.
The amorphous form is hygroscopic as indicated by Gravimetric Vapour Sorption Analysis (GVA).
In contrast, there was no significant water uptake observed between 40% RH and 90% RH (approximately 0.3% w/w) by the crystalline solid form (the water sorption/desorption isotherms are shown in FIGS. 9 and 10).

[3] = 6 months at 40° C. and 75% relative humidity

T1 sequence (Q00788 whole entry): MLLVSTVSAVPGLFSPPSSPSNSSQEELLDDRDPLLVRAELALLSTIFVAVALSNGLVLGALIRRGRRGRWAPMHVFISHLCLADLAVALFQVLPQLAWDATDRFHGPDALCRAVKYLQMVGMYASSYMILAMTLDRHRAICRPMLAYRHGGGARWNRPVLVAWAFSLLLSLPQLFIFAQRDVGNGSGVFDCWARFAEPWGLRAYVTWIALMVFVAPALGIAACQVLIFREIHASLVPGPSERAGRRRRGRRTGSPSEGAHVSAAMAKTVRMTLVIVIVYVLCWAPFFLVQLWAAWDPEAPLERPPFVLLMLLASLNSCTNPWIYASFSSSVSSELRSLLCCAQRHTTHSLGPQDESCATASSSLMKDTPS

inhibition of urine output (vasopressin V2 receptor)	sum of impurities (HPLC) after storage [1, 3]	water / moisture content (Karl Fischer) after storage [1, 3]	sum of impurities (HPLC), initial [1]	water / moisture content (Karl Fischer), initial [1]	hygroscopicity (in words) ([2]; listed as amorphous solid)	stability (in words) [1, 3]	water / moisture content (Karl Fischer), initial ([1]; listed as Form 1)	water uptake between 40% RH and 90% RH ([2]; 25 °C, 40% RH to 90% RH)	change in solid form over the entire water sorption range ([2]; listed as crystalline solid form)	Structure (SMILES)	appearance after storage [1, 3]	hygroscopicity (in words) [2]	change in solid form over the entire water sorption range [2]
82%	–	–	–	–	–	–	–	–	–	Cc1cc(C(=O)N2CCCCc3ccccc32)ccc1CNC(=O)N1CCC[C@H]1C(=O)N(C)C [1-(2-methyl-4-(2,3,4,5-tetrahydro-1-benzazepin-1-ylcarbonyl)benzylcarbamoyl)-L-proline-N,N-dimethylamide]	–	–	–
–	3.7%	5.7%	1.5%	1.3%	hygroscopic	–	–	–	–	Cc1cc(C(=O)N2CCCCc3ccccc32)ccc1CNC(=O)N1CCC[C@H]1C(=O)N(C)C [amorphous form, 1-(2-methyl-4-(2,3,4,5-tetrahydro-1-benzazepin-1-ylcarbonyl)benzylcarbamoyl)-L-proline-N,N-dimethylamide]	became glassy in appearance and became yellow in colour; also recorded: became glassy in appearance and yellow in colour	highly hygroscopic	remained stable to recrystallisation
–	1.0%	3.8%	0.9%	–	–	more stable than the amorphous form	3.8%	approximately 0.3 % w/w	no change in solid state form	Cc1cc(C(=O)N2CCCCc3ccccc32)ccc1CNC(=O)N1CCC[C@H]1C(=O)N(C)C [crystalline form, 1-(2-methyl-4-(2,3,4,5-tetrahydro-1-benzazepin-1-ylcarbonyl)benzylcarbamoyl)-L-proline-N,N-dimethylamide]	remains as a white powder	much less hygroscopic than the amorphous form	Neither is there any change in solid form
